According to patent US9585389B2, “Microbicidal composition” (Dow Global Technologies LLC, priority 2013, dated 2017):
Where two headings read alike, the source gives them in different places.

Experiments:
[1] = tested on: Pseudomonas aeruginosa ATCC #15442; assay: MIC / synergy index test in 96 well microtiter plates; assay type: cell-based; conditions: 1/10 TSB; for MIC: Pseudomonas aeruginosa, ATCC15442, 24 h, Phenoxyethanol alone, read-out: CB (MIC of compound B alone)
Experimental: (§1) Surfactants and biocides were evaluated for synergy by determining the synergy index (S.I.) of the combination. Synergy index was calculated based on minimum inhibitory concentrations (MIC) of two antimicrobial compounds (A and B) alone and in combinations. The tests organisms were Gram negative bacteria (Pseudomonas aeruginosa ATCC #15442),
(§2) Gram positive bacteria (Staphylococcus aureus ATCC #6538), yeast (Candida albicans ATCC#10203) and mold (Aspergillus niger ATCC#16404). Contact time for the bacteria was 24 and 48 hours, yeast was 48 and 72 hrs, and 3 and 7 days for mold. The test was carried out in 96 well microtiter plates. • Surf. A R^1O(CH2CH(CH3)o)5(CH2CH2O)9H, where R^1 is 2-ethylhexyl • Surf. D R^2O(CH2CH(CH3)o)3(CH2CH2O)5H • Surf. E R^2O(CH2CH(CH3)o)3(CH2CH2O)7H • In Surf. D and Surf. E, R^2 is a mixture of C8-C14 linear alkyl groups (70% C8-C10 linear alkyl and 30% C12-C14 linear alkyl)
(§3) The pH of the Triptic soy broth was 7.3 and the Potato dextrose broth was 5.1.
(§4) SI is calculated as follows: Ca/CA+Cb/CB=Synergy Index (“SI”)
(§5) Wherein: • CA=concentration of compound A in ppm, acting alone, which produced an end point (MIC of Compound A). • Ca=concentration of compound A in ppm, in the mixture, which produced an end point. • CB=concentration of compound B in ppm, acting alone, which produced an end point (MIC of Compound B). • Cb=concentration of compound B in ppm, in the mixture, which produced an end point. When the sum of Ca/CA and Cb/CB is greater than one, antagonism is indicated.

[2] = tested on: Staphylococcus aureus ATCC #6538; assay: as above; assay type: cell-based; conditions: 1/10 TSB; for MIC: Staphylococcus aureus, ATCC6538, 24 h, Phenoxyethanol alone
Experimental: as §1, §2, §3, §4, §5

[3] = tested on: Candida albicans ATCC#10203; assay: as above; assay type: cell-based; conditions: ATCC10203, 48 h, read-out: CB (MIC of compound B alone)
Experimental: as §1, §2, §3, §4, §5

[4] = tested on: Aspergillus niger ATCC#16404; assay: as above; assay type: cell-based; conditions: ATCC16404, read-out: CB (MIC of compound B alone)
Experimental: as §1, §2, §3, §4, §5

[5] = Stability Testing of phenoxyethanol/surfactant solutions; assay type: physicochemical; conditions: 33% phenoxyethanol in 70% isopropanol with surfactant, PE:Surfactant 1:27
Experimental: A solution of phenoxyethanol in 70% (v/v) isopropanol was made and diluted with surfactant to give the desired ratios of biocide to surfactant. Additional 70% isopropanol was added as needed to give a 33 wt % solution of phenoxyethanol. The samples were split into three vials. One vial was stored at room temperature, one was stored at 40 C and one was stored at 50 C. […] Samples that were cloudy or highly discolored were determined to be unstable.

Compound `OCCOc1ccccc1` [Phenoxyethanol, 2-phenoxy-1-ethanol] has an MIC ([1]; series with Surf. A, inoculum 8.134E+07CFU/ml) of 5000 µg/mL, an MIC ([1]; series with Surf. D, inoculum 1.16E+05CFU/ml) of 4000 µg/mL and an MIC ([1]; series with Surf. E, inoculum 5.727E+07CFU/ml) of 4000 µg/mL. For the same compound, the MIC ([2]; series with Surf. A, inoculum 1.156E-+06CFU/ml, read-out: CB (MIC of compound B alone)) was 8000 µg/mL, the MIC ([2]; series with Surf. D, inoculum 1.808E+05, read-out: CB (MIC of compound B alone)) was 10000 µg/mL and the MIC ([2]; series with Surf. E, inoculum 1.808E+06CFU/ml, read-out: CB (MIC of compound B alone)) was 8000 µg/mL. It also gave an MIC [3] of 4000 µg/mL and an MIC [4] of 4000 µg/mL.

In the case of `CCCCC(CC)COCC(C)OCC(C)OCC(C)OCC(C)OCC(C)OCCOCCOCCOCCOCCOCCOCCOCCOCCO` (centres unmarked) [Surf. A, R^1O(CH2CH(CH3)o)5(CH2CH2O)9H, where R^1 is 2-ethylhexyl], the “CA (MIC of compound A alone)” value ([1]; Surf. A alone, 24 hrs, inoculum 8.134E+07CFU/ml) is reported as over 20000 ppm and the “CA (MIC of compound A alone)” value ([2]; Surf. A alone, 24 hrs, inoculum 1.156E-+06CFU/ml) is reported as over 20000 ppm.

For POLYSORBATE 20, the “Stability (appearance)” value ([5]; Day 2, 40° C.) was “Slightly”, the “Stability (appearance)” value ([5]; Day 2, 50° C.) was “Slightly” and the “Stability (appearance)” value ([5]; Day 7, 40° C.) was “Slightly”. For the same compound, the “Stability (appearance)” value ([5]; Day 7, 50° C.) was “Slightly”.
